According to patent publication US6596727B1, “Substituted pyrimidines, processes for their preparation, and their use as pesticides and fungicides” (priority 1992, dated 2003):

system: larvae (L3) of the species Nilaparvata lugens; test: Nilaparvata lugens larvae test on dipped rice plants; format: in vivo; details: 250 ppm of the active ingredient, 21° C., after 4 days
Description: Rice seed is placed into glass culture dishes containing cotton wool and germinated under moist conditions and, after the stem has grown to a length of approx. 8 cm, it is dipped together with the leaves into the test solution. The test solution is allowed to run off from the treated rice plants, and the plants are transferred to culture containers and populated with batches of 10 larvae (L3) of the species Nilaparvata lugens, the individual test concentrations being kept separate from each other. After the sealed culture containers have been kept at 21° C., the mortality of the cicada larvae can be determined after 4 days.
Under these test conditions, the compounds according to Example No. 9, 25, 30, 93, 99, 432 have a 100% activity at a test concentration of 250 ppm of the active ingredient.

Row | Structure (SMILES) | mortality of the cicada larvae (activity) [%]
1 | CCc1ncnc(OC2CCC(c3ccc(OC(C)(C)C)cc3)CC2)c1Cl (stereo not drawn) [Example 432] | 100
2 | COCc1ncnc(NC2CCC(c3ccccc3)CC2)c1OC (mixture of isomers) [Example 93] | 100
3 | CCC(C)(C)C1CCC(Nc2ncnc(COC)c2OC)CC1 (stereo not drawn) [Example 30] | 100
4 | COCc1ncnc(NC2CCC(C(C)C)CC2)c1OC (stereo not drawn) [Example 25] | 100
5 | COCc1ncnc(NC2CCC(C(C)(C)C)CC2)c1OC (mixture of isomers) [Example 9] | 100

system: tropical cattle ticks (Boophilus microplus); test: In vitro test with tropical cattle ticks, inhibition of oviposition; format: in vivo; details: 500 ppm active substance; females immersed five minutes; two weeks after the treatment
Procedure: In vitro test with tropical cattle ticks (Boophilus microplus)
To prepare a suitable preparation of active substance, the active substances were dissolved at a concentration of 10% (w/v) in a mixture composed of dimethylformamide (85 g), nonylphenol polyglycol ether (3 g) and oxethylated castor oil (7 g), and the resulting emulsion concentrates were diluted with water to a test concentration of 500 ppm.
Batches of ten females of the tropical tick Boophilus microplus which had sucked themselves full were immersed for five minutes in these active substance dilutions. The ticks were subsequently dried on filter paper and then attached, by their backs, to an adhesive film for the purpose of oviposition. The ticks were kept in an incubator at 28° C. and an atmospheric humidity of 90%.
As a control, female ticks were merely immersed in water. The inhibition of oviposition two weeks after the treatment was used to assess the effectiveness. 100% mean that no ticks have deposited eggs, 0% means that all ticks have deposited eggs.

Row | Structure (SMILES) | inhibition of oviposition [%]
6 | CCC(C)(C)C1CCC(Nc2ncnc(COC)c2OC)CC1 (stereo not drawn) [Example 30] | 100
7 | c1ccc(C2CCC(Oc3ncnc4c3CCCC4)CC2)cc1 (stereo not drawn) [Example 106] | 100
8 | CC(C)(C)C1CCC(Nc2ncnc3c2CCCC3)CC1 (mixture of isomers) [Example 10] | 100
9 | CC(C)(C)C1CCC(Oc2ncnc3c2CCCC3)CC1 (stereo not drawn) [Example 19] | 100
